# “And” between values parts separate entries of the source, which are not always exact repeats. Equal values may be shown once. “Also recorded” adds a separate entry of the source. Read-outs that look alike come from different tables or passages of the source.
# Legend:
# SrtBΔN = SrtBΔN (Staphylococcus aureus, UniProt Q2FZE3, E55A/N120I/R216K); assay type: biochemical, S. aureus; settings: for SrtBΔN cleavage of NPQTN peptides: incubation of purified enzyme with inhibitor
# SrtADN = SrtADN (Staphylococcus aureus, UniProt Q2FV99); assay type: biochemical, S. aureus
# [1] = biological target: sortase (cleavage of sorting signals at the LPXTG motif) (Staphylococcus aureus, UniProt Q2FV99); assay type: cell-based, S. aureus OS2
# sortase = sortase (Staphylococcus aureus, UniProt Q2FV99); assay type: biochemical, staphylococcal
# [2] = system: Sec-dependent export of P1 precursor (SecA); assay type: cell-based, S. aureus OS2
# staphylococci [3] = assay type: cell-based, S. aureus OS2
# [4] = system: surface protein SEB-SPA490-524 (sortase acyl-enzyme intermediates); assay type: cell-based, S. aureus
# [5] = system: surface protein SEB-MH6-CWS; assay type: cell-based, S. aureus OS2 and BB270
# [6] = system: cell wall sorting of Seb-Spa490-524; assay type: cell-based, S. aureus OS2
# staphylococci [7] = test: Growth of staphylococci in the presence of antibiotics; assay type: cell-based, S. aureus OS2
# [8] = system: bacterial cell wall synthesis; assay type: cell-based, S. aureus
molecule,measurement,setting,value
O[C@H](CS)[C@H](O)CS (racemic) [dithiothreitol],SrtB-mediated cleavage of NPQTN peptide,"SrtBΔN; addition of DTT, even in the presence of MTSET",greatly stimulated SrtB-mediated cleavage
same,LPXTG peptide cleavage activity restored,SrtADN; MTSET-inactivated SrtADN incubated with 10 mM DTT,80%
same,cleavage of sorting signals at the LPXTG motif (cell wall sorting reaction),[1],did not affect the sorting reaction
O=C(O)CN(CCN(CC(=O)O)CC(=O)O)CC(=O)O [EDTA],cleavage of sorting signals at the LPXTG motif (cell wall sorting reaction),[1],"Neither PMSF, which reacts with hydroxyl (Creighton, 1993), nor treatment with the divalent cation chelator EDTA interfered with cell wall sorting"
CS(=O)(=O)SCCS(=O)(=O)[O-].[Na+] [MTSES],cleavage of sorting signals at the LPXTG motif (cell wall sorting reaction),[1],interfered with sorting albeit not as effectively as MTSET
"C[N+](C)(C)CCSS(C)(=O)=O [MTSET, [2-(trimethylammonium)ethyl]methanethiosulfonate]",hydroxylaminolysis of LPXTG peptide,sortase; pre-incubation of staphylococcal extracts with MTSET,inhibited
same,SrtBΔN cleavage of NPQTN peptides,SrtBΔN,inhibited
same,Sec-dependent export of P1 precursor,[2],remained unaltered
same,incorporation of [35S]methionine by staphylococci,staphylococci [3],prevented incorporation
same,hydroxylaminolysis of LPXTG peptide by SrtADN,SrtADN; pre-incubation with MTSET,abolished all enzymatic activity
same,cleavage of sorting signals at the LPXTG motif (cell wall sorting reaction),[1],sensitive; also recorded: interfered with the cleavage of sorting signals at the LPXTG motif
CCN1C(=O)C=CC1=O [N-ethylmaleimide],cleavage of sorting signals at the LPXTG motif (cell wall sorting reaction),[1],did not
"NO [NH2OH, hydroxylamine]",fluorescence intensity (LPXTG peptide cleavage),sortase; 0.1 M NH2OH added to staphylococcal extracts,forty fold increase in fluorescence intensity
same,amounts of released surface proteins,[4],increased amounts of released surface proteins
same,surface proteins released into the extra-cellular medium,[4],16.9% and 12.7%
same,release of SEB-MH6-CWS,[5],caused the release of SEB-MH6-CWS
O=S(=O)(F)Cc1ccccc1 [PMSF],cleavage of sorting signals at the LPXTG motif (cell wall sorting reaction),[1],"Neither PMSF, which reacts with hydroxyl (Creighton, 1993), nor treatment with the divalent cation chelator EDTA interfered with cell wall sorting"
NC(=O)CI [iodoacetamide],cleavage of sorting signals at the LPXTG motif (cell wall sorting reaction),[1],did not
O=C(O)CI [iodoacetate],cleavage of sorting signals at the LPXTG motif (cell wall sorting reaction),[1],did not
OCCS [mercaptoethanol],cleavage of sorting signals at the LPXTG motif (cell wall sorting reaction),[1],did not affect the sorting reaction
CSS(C)(=O)=O [methylmethane thiosulfonate],peptide bond hydrolysis / cleavage of LPETG peptide,"SrtADN; SrtA DN, absence of the peptidoglycan substrate",inhibited
"O=C(O)c1cc[c]([Hg][OH])cc1 [pHMB, p-hydroxymercuribenzoic acid]",SrtBΔN cleavage of NPQTN peptides,SrtBΔN,inhibited
same,SrtAΔN cleavage of LPXTG containing peptides,SrtADN; incubation of purified enzyme with inhibitor,inhibited
same,cleavage of sorting signals at the LPXTG motif (cell wall sorting reaction),[1],chemical inhibitors of the sorting reaction; also recorded: displayed an inhibitory effect
"CC1(C)S[C@@H]2[C@H](NC(=O)Cc3ccccc3)C(=O)N2[C@H]1C(=O)O [penicillin, penicillin G]",rate of cell wall sorting (P2 precursor accumulation),[6],did not alter the rate of cell wall sorting
same,growth rate of staphylococci,staphylococci [7],reduced the growth rate
CN[C@H](CC(C)C)C(=O)N[C@H]1C(=O)N[C@@H](CC(N)=O)C(=O)N[C@H]2C(=O)N[C@H]3C(=O)N[C@H](C(=O)N[C@H](C(=O)O)c4cc(O)cc(O)c4-c4cc3ccc4O)[C@H](O)c3ccc(c(Cl)c3)Oc3cc2cc(c3O[C@@H]2O[C@H](CO)[C@@H](O)[C@H](O)[C@H]2O[C@H]2C[C@](C)(N)[C@H](O)[C@H](C)O2)Oc2ccc(cc2Cl)[C@H]1O [vancomycin],rate of cell wall sorting (P2 precursor accumulation),[6],steady accumulation of P2 precursor
same,inhibition of cell wall synthesis,[8],20 fold
same,ratio of incorporated [3H]lysine/[3H]leucine,[8],1.5
same,growth rate of staphylococci,staphylococci [7],reduced the growth rate
moenomycin,rate of cell wall sorting (P2 precursor accumulation),[6],"similar, albeit weaker effect"
same,growth rate of staphylococci,"staphylococci [7]; 10 μg/ml antibiotic, compared to mock treated control",reduced the growth rate

# From patent US20060073530A1 (priority 2001, published 2006)
